A short description of the series: Rat PK study (IV 1 mg/kg and PO 5 mg/kg). Format: in vivo, male SD rats. The settings on record: for AUC(0-t) / clearance / half-life / Vd / Cmax: male, SD, rat, plasma; for clearance: read-out: IV Cl; for Vd: read-out: IV Vz. Here is the method: According to standard methods for rat PK studies in this field, the rat PK tests for the representative compounds of this disclosure and the positive control compound (11a-1) were conducted as follows.
Specifically, six male SD rats (6-8 weeks old, weighing 200 ± 20 g, purchased from Vital River Laboratories) were randomly divided into two groups of three rats each, for intravenous (IV) and oral gavage (PO) administration, respectively.
For the intravenous injection group: the test compound was weighed according to the administration dose (1 mg/kg), dissolved using the solvent listed in the table below to obtain a clear solution of 1 mg/mL, and administered to the rats via tail vein injection at a dose of 1 mg/kg. […]
Blood was collected via jugular vein puncture at various time points: 0.083, 0.25, 0.5, 1, 2, 4, 6, 8, and 24 hours. 0.2 mL of whole blood was collected at each time point, placed in a 1.5 mL anticoagulant tube containing EDTA, and placed on a sample plate containing wet ice until centrifugation; after centrifugation at 8000 rpm for 10 minutes at 4°C, 0.1 mL of plasma sample was collected and stored in an […] cryovial at -20°C until analysis.
Preparation of the stock solution of the test compound: 1 mg of the test compound was accurately weighed, dissolved in 1 mL of DMSO to prepare a 1 mg/mL stock solution S1, and stored in a 4°C refrigerator until use.
Preparation of the internal standard working solution: 0.1 mL of tolbutamide (2 mg/mL) internal standard stock solution was pipetted into 1000 mL of acetonitrile to prepare a 200 ng/mL internal standard working solution, which is used as a protein precipitant in sample pretreatment. The prepared internal standard working solution was stored at 4°C and valid for 12 months.
Preparation of the standard curve and quality control sample working solutions: 50 µL of the 1 mg/mL test compound DMSO stock solution S1 was diluted with 950 µL of 100% methanol solution to obtain a working solution with a concentration of 50000 ng/mL. Then, the 50000 ng/mL working solution was serially diluted with 100% methanol solution to obtain a series of standard curve working solutions with concentrations of 10, 20, 50, 100, 500, 1000, 5000, 10000, 20000, and 50000 ng/mL. 40 µL of the 1 mg/mL test compound DMSO stock solution S1 was diluted with 960 µL of 100% methanol solution to obtain a quality control sample working solution with a concentration of 40000 ng/mL. An appropriate amount of this working solution was diluted appropriately to prepare quality control sample working solutions with concentrations of 8000 and 16000 ng/mL. 60 µL of the 50 ng/mL test compound DMSO standard curve working solution was diluted with 40 µL of 100% methanol solution to obtain a quality control sample working solution with a concentration of 30 ng/mL.
Plasma sample treatment: standard curve and quality control samples for the test compound in plasma were prepared by diluting 5 µL of working solutions of different concentrations of the test compound for the standard curve and quality control samples in 45 µL of blank rat plasma, resulting in final concentrations of 1, 2, 5, 10, 50, 100, 500, 1000, 2000, and 5000 ng/mL for the standard curve and final concentrations of 3, 800, 1600, and 4000 ng/mL for the quality control samples.
Plasma sample pretreatment: 50 µL of the plasma sample was transferred to a 96-well plate, added with 500 µL of acetonitrile containing 200 ng/mL tolbutamide as an internal standard for protein precipitation, and centrifuged at 4000 rpm for 20 minutes at 2-8 °C. 300 µL of the supernatant was transferred to a new labeled 96-well plate, mixed thoroughly with 300 µL of 0.1% formic acid in water, and injected 10 µL into LC-MS/MS (API-4000 Qtrap-Shimadzu Controller-CBM20A).
The internal standard method was used for sample analysis. Data acquisition and analysis were performed using Analyst 1.6.3. […]

The mark [1] stands for this setting: 1 mg/kg, IV, dose 1 mpk, read-out: IV AUC 0->t.
The mark [2] stands for this setting: 1 mg/kg, IV, dose 1 mpk, read-out: IV T1/2 (converted).
Setting [3] is: 5 mg/kg, PO, dose 5 mpk, read-out: PO AUC 0->t.
Where [4] appears, read: 5 mg/kg, PO, dose 5 mpk, read-out: PO T1/2 (converted).

Read-outs that look alike come from different tables or passages of the source.

As for `Cn1c(-c2cccc(NC(=O)C(=O)Nc3ccc(-c4ccsc4)cc3)c2)c(I)c2cc(C(=O)O)c(O)cc21` [Example 11a-1, reference compound], under “PO, dose 10 mpk (IV 1 mpk)”, the “PO F” value was 0.07%. Further, the AUC(0-t) runs as follows: under setting [1], 4230 ng·h/mL; (10 mg/kg, PO, dose 10 mpk, read-out: PO AUC 0->t) 30 ng·h/mL. Besides, under “1 mg/kg, IV, dose 1 mpk”, the clearance was determined as 4 mL/min/kg. Moreover, the half-life by setting is: under setting [2], 244 min; (10 mg/kg, PO, dose 10 mpk, read-out: PO T1/2 (converted)) 66 min. In addition, where the note is “1 mg/kg, IV, dose 1 mpk”, the Vd worked out at 1.42 L/kg. This compound also showed a Cmax (10 mg/kg, PO, dose 10 mpk) of 44.2 ng/mL.
For the compound `CC1(n2c(-c3ccc(NC(=O)C(=O)Nc4ccc(N5CCC6(CCOC6)CC5)cc4)cc3)cc3cc(F)c(-c4nnn[nH]4)cc32)CCC1` [Example 68], the “PO F” value (PO, dose 5 mpk (IV 1 mpk)) amounted to 30.5%. The AUC(0-t) is, setting by setting: under setting [1], 1380 ng·h/mL; under setting [3], 2100 ng·h/mL. Besides, the clearance (1 mg/kg, IV, dose 1 mpk) was determined as 12.6 mL/min/kg. Besides, the half-life by setting is: under setting [2], 97.8 min; under setting [4], 259 min. Besides, the Vd (1 mg/kg, IV, dose 1 mpk) is 1.57 L/kg. For the setting “5 mg/kg, PO, dose 5 mpk”, this compound came in with a Cmax of 150 ng/mL.
Take `O=C(Nc1ccc(-c2cc3cc(F)c(-c4nnn[nH]4)cc3n2C2CCC2)cc1)C(=O)Nc1ccc(N2CCC(CO)CC2)cc1` [Example 23]: the “PO F” value (PO, dose 5 mpk (IV 1 mpk)) amounted to 52.7%. Also, the AUC(0-t) under setting [1] was found to be 2840 ng·h/mL and the AUC(0-t) under setting [3] is 8010 ng·h/mL. The clearance (1 mg/kg, IV, dose 1 mpk) came to 5.45 mL/min/kg. Further, the half-life is 509 min under setting [2] and 190 min under setting [4]. Further, the Vd (1 mg/kg, IV, dose 1 mpk) worked out at 4.01 L/kg. Further, for the setting “5 mg/kg, PO, dose 5 mpk”, the highest level (Cmax) was 1140 ng/mL.

(Values after patent EP4741383A1, “COMPOUND AND USE THEREOF AS ANTI-CANCER DRUG” (Tyligand Bioscience (Shanghai) Limited, priority 2023, dated 2025).)
